In patent US6110965A, “Ketolides from the class of 15-membered lactams” (PLIVA, farmaceutska, kemijska, prehrambena i kozmeticka …, priority 1998, dated 2000):
Converted amounts (≈) assume the structure as drawn. Where two headings read alike, the source gives them in different places.

Key:
[1] = test system: Staphylococcus aureus ATCC 25923; assay: Antibacterial in vitro action (MIC), microdilution process according to NCCLS; type: cell-based
[2] = test system: Proteus mirabilis ATCC 12453; assay: as above; type: cell-based
[3] = test system: Shigella flexneri ATCC 12022; assay: as above; type: cell-based; conditions: ATCC12022, read-out: Antibacterial in vitro action (MIC, mg/l)
Description: Antibacterial in vitro action of the new compounds of the general formula (I), wherein A, B, R^1, R^2 and R^3 have the above-mentioned meanings, and of their pharmaceutically acceptable addition salts with inorganic or organic acids was determined on a series of standard test microorganisms and clinical isolates by microdilution process according to the protocol NCCLS (The National Commitee for Clinical Laboratory Standards, Document M7-A2, Vol. 10, No. 8, 1990 and Document M11-A2, Vol. 10, 15,1991). The control of the laboratory process was performed by means of control strain Staphyloccocus aureus ATTC 29213 (The American Type Culture Collection) according to protocol NCCLS (Document M7-A2, Table 3, M100-S4).
The antibacterial in vitro action on a series of standard test microorganisms for 6-O-methyl-8a-aza-8a-homoerythromycin A from Example 3 in comparison with azithromycin, erythromycin and clarithromycin is represented in Table 1.

[4] = test system: Clostridium perfringens ATCC 13124; assay: microbe, parasite or virus in culture; type: cell-based; conditions: ATCC13124, read-out: Antibacterial in vitro action (MIC, mg/l)
[5] = test system: Salmonella choleraesuis ATCC 13076; assay: Antibacterial in vitro action (MIC), microdilution process according to NCCLS; type: cell-based; conditions: Salmonella enterica, read-out: Antibacterial in vitro action (MIC, mg/l)
[6] = test system: Moraxella catarrhalis ATCC 25238; assay: as above; type: cell-based
[7] = test system: human phagocyte cells; conditions: cited from earlier work
[8] = test system: Enterococcus faecalis ATCC 35550; assay: Antibacterial in vitro action (MIC), microdilution process according to NCCLS; type: cell-based
[9] = test system: Listeria monocytogenes ATCC 7644; assay: as above; type: cell-based
[10] = test system: Haemophilus influenzae ATCC 49766; assay: as above; type: cell-based
[11] = test system: Citroobacter freundii ATCC 8090; assay: as above; type: cell-based; conditions: read-out: Antibacterial in vitro action (MIC, mg/l)
[12] = test system: Streptococcus pyogenes ATCC 19615; assay: as above; type: cell-based
[13] = test system: Staphylococcus epidermidis ATCC 12228; assay: as above; type: cell-based
[14] = test system: Campylobacter fetus ATCC 19438; assay: as above; type: cell-based
[15] = test system: Pseudomonas aeruginosa ATCC 25619; assay: as above; type: cell-based
[16] = test system: Escherichia coli ATCC 25922; assay: as above; type: cell-based; conditions: ATCC25922, read-out: Antibacterial in vitro action (MIC, mg/l)
[17] = in vivo; cited from earlier work
[18] = test system: Proteus mirabilis ATCC 43071; assay: Antibacterial in vitro action (MIC), microdilution process according to NCCLS; type: cell-based
[19] = test system: Campylobacter jejuni ATCC 33291; assay: as above; type: cell-based
[20] = test system: Streptococcus pneumoniae ATCC 6305; assay: as above; type: cell-based
[21] = test system: Yersinia enterocolitica ATCC 9610; assay: as above; type: cell-based
[22] = test system: gram-negative bacteria; conditions: cited from earlier work
[23] = test system: Haemophilus influenzae ATCC 49247; assay: Antibacterial in vitro action (MIC), microdilution process according to NCCLS; type: cell-based
[24] = compared to erythromycin A; cited from earlier work
[25] = test system: gram-positive bacterial strains; conditions: compared to erythromycin A; cited from earlier work
[26] = oral preparations; cited from earlier work
[27] = ATCC25923, Staphylococcus aureus ATCC 25923, read-out: Antibacterial in vitro action (MIC, mg/l)
[28] = ATCC12453, Proteus mirabilis ATCC 12453, read-out: Antibacterial in vitro action (MIC, mg/l)
[29] = Salmonella choleraesuis ATCC 13076
[30] = Moraxella catarrhalis, ATCC25238, read-out: Antibacterial in vitro action (MIC, mg/l)
[31] = ATCC35550, Enterococcus faecalis ATCC 35550, read-out: Antibacterial in vitro action (MIC, mg/l)
[32] = Listeria monocytogenes, ATCC7644, read-out: Antibacterial in vitro action (MIC, mg/l)
[33] = ATCC49766, Haemophilus influenzae ATCC 49766, read-out: Antibacterial in vitro action (MIC, mg/l)
[34] = Citroobacter freundii ATCC 8090
[35] = Streptococcus pyogenes, ATCC19615, read-out: Antibacterial in vitro action (MIC, mg/l)
[36] = ATCC12228, Staphylococcus epidermidis ATCC 12228, read-out: Antibacterial in vitro action (MIC, mg/l)
[37] = Campylobacter fetus, ATCC19438, read-out: Antibacterial in vitro action (MIC, mg/l)
[38] = ATCC25619, Pseudomonas aeruginosa ATCC 25619, read-out: Antibacterial in vitro action (MIC, mg/l)
[39] = ATCC43071, Proteus mirabilis ATCC 43071, read-out: Antibacterial in vitro action (MIC, mg/l)
[40] = Campylobacter jejuni, ATCC33291, read-out: Antibacterial in vitro action (MIC, mg/l)
[41] = Streptococcus pneumoniae, ATCC6305, read-out: Antibacterial in vitro action (MIC, mg/l)
[42] = ATCC9610, Yersinia enterocolitica ATCC 9610, read-out: Antibacterial in vitro action (MIC, mg/l)
[43] = ATCC49247, Haemophilus influenzae ATCC 49247, read-out: Antibacterial in vitro action (MIC, mg/l)

| Structure (SMILES) | MIC [1, 27] [mg/L] | MIC [2, 28] [mg/L] | MIC [3] [mg/L] | MIC [4] [mg/L] | MIC [5, 29] [mg/L] | MIC [6, 30] [mg/L] | MIC [8, 31] [mg/L] | MIC [9, 32] [mg/L] | MIC [10, 33] [mg/L] | MIC [11, 34] [mg/L] | MIC [12, 35] [mg/L] | MIC [13, 36] [mg/L] | MIC [14, 37] [mg/L] | MIC [15, 38] [mg/L] | MIC [16] [mg/L] | MIC [18, 39] [mg/L] | MIC [19, 40] [mg/L] | MIC [20, 41] [mg/L] | MIC [21, 42] [mg/L] | MIC [23, 43] [mg/L] | also measured |
| --- | --- | --- | --- | --- | --- | --- | --- | --- | --- | --- | --- | --- | --- | --- | --- | --- | --- | --- | --- | --- | --- |
| CC[C@H]1OC(=O)[C@H](C)[C@@H](O[C@H]2C[C@@](C)(OC)[C@@H](O)[C@H](C)O2)[C@H](C)[C@@H](O[C@@H]2O[C@H](C)C[C@H](N(C)C)[C@H]2O)[C@](C)(O)C[C@@H](C)CN(C)[C@H](C)[C@@H](O)[C@]1(C)O [Az, 9-deoxo-9a-methyl-9a-aza-9a-homoerythromycin A] | 0.5 (≈ 0.668 µM) | 64 (≈ 85.4 µM) | 1 (≈ 1.34 µM) | 0.125 (≈ 0.167 µM) | 2 (≈ 2.67 µM) | < 0.125 | 0.5 (≈ 0.668 µM) | < 0.125 | 1 (≈ 1.34 µM) | 4 (≈ 5.34 µM) | < 0.125 | 1 (≈ 1.34 µM) | < 0.125 | 64 (≈ 85.4 µM) | 2 (≈ 2.67 µM) | 64 (≈ 85.4 µM) | < 0.125 | < 0.125 | 1 (≈ 1.34 µM) | 0.5 (≈ 0.668 µM) | penetration and accumulation within human phagocyte cells [7]: able to penetrate and to accumulate within human phagocyte cells; biological half-time [17]: long biological half-time; antimicrobial spectrum [22]: broad antimicrobial spectrum including gram-negative bacteria |
| CC[C@H]1OC(=O)[C@H](C)[C@@H](O[C@H]2C[C@@](C)(OC)[C@@H](O)[C@H](C)O2)[C@H](C)[C@@H](O[C@@H]2O[C@H](C)C[C@H](N(C)C)[C@H]2O)[C@](C)(OC)C[C@@H](C)C(=O)[C@H](C)[C@@H](O)[C@]1(C)O [Cl, 6-O-methyl-erythromycin A] | 0.5 (≈ 0.668 µM) | 128 (≈ 171 µM) | 32 (≈ 42.8 µM) | 0.125 (≈ 0.167 µM) | 32 (≈ 42.8 µM) | < 0.125 | 0.25 (≈ 0.334 µM) | < 0.125 | 8 (≈ 10.7 µM) | 64 (≈ 85.6 µM) | < 0.125 | 0.25 (≈ 0.334 µM) | < 0.125 | > 128 | 32 (≈ 42.8 µM) | > 128 | < 0.125 | < 0.125 | 16 (≈ 21.4 µM) | 4 (≈ 5.35 µM) | stability in acidic medium [24]: considerably more stable in acidic medium; in vitro activity against gram-positive bacterial strains [25]: increased in vitro activity against gram-positive bacterial strains |
| CC[C@H]1OC(=O)[C@H](C)[C@@H](O[C@H]2C[C@@](C)(OC)[C@@H](O)[C@H](C)O2)[C@H](C)[C@@H](O[C@@H]2O[C@H](C)C[C@H](N(C)C)[C@H]2O)[C@](C)(O)C[C@@H](C)C(=O)[C@H](C)[C@@H](O)[C@]1(C)O [Er, erythromycin A] | – | – | 32 (≈ 43.6 µM) | 0.5 (≈ 0.681 µM) | – | < 0.125 | – | < 0.125 | – | – | < 0.125 | – | < 0.125 | – | 32 (≈ 43.6 µM) | – | < 0.125 | < 0.125 | – | – | MIC ([1]; Staphylococcus aureus, ATCC25923, read-out: Antibacterial in vitro action (MIC, mg/l)): 0.25 mg/L (≈ 0.341 µM); gastric intolerance [26]: gastric intolerance in many patients; MIC ([2]; Proteus mirabilis, ATCC12453, read-out: Antibacterial in vitro action (MIC, mg/l)): > 128 mg/L; MIC [5]: 64 mg/L (≈ 87.2 µM); MIC ([8]; Enterococcus faecalis, ATCC35550, read-out: Antibacterial in vitro action (MIC, mg/l)): 1 mg/L (≈ 1.36 µM); MIC ([10]; Haemophilus influenzae, ATCC49766, read-out: Antibacterial in vitro action (MIC, mg/l)): 4 mg/L (≈ 5.45 µM); MIC [11]: 64 mg/L (≈ 87.2 µM); MIC ([13]; Staphylococcus epidermidis, ATCC12228, read-out: Antibacterial in vitro action (MIC, mg/l)): 0.25 mg/L (≈ 0.341 µM); MIC ([15]; Pseudomonas aeruginosa, ATCC25619, read-out: Antibacterial in vitro action (MIC, mg/l)): > 128 mg/L; MIC ([18]; Proteus mirabilis, ATCC43071, read-out: Antibacterial in vitro action (MIC, mg/l)): > 128 mg/L; MIC ([21]; Yersinia enterocolitica, ATCC9610, read-out: Antibacterial in vitro action (MIC, mg/l)): 16 mg/L (≈ 21.8 µM); MIC ([23]; Haemophilus influenzae, ATCC49247, read-out: Antibacterial in vitro action (MIC, mg/l)): 2 mg/L (≈ 2.73 µM) |
| CC[C@H]1OC(=O)[C@H](C)[C@@H](O[C@H]2C[C@@](C)(OC)[C@@H](O)[C@H](C)O2)[C@H](C)[C@@H](O[C@@H]2O[C@H](C)C[C@H](N(C)C)[C@H]2O)[C@](C)(OC)C[C@@H](C)NC(=O)[C@H](C)[C@@H](O)[C@]1(C)O [Example 3, 6-O-methyl-8a-aza-8a-homoerythromycin A] | 0.5 (≈ 0.655 µM) | 32 (≈ 41.9 µM) | 4 (≈ 5.24 µM) | 0.25 (≈ 0.328 µM) | 8 (≈ 10.5 µM) | – | 1 (≈ 1.31 µM) | – | 1 (≈ 1.31 µM) | 16 (≈ 21 µM) | – | 0.5 (≈ 0.655 µM) | – | 32 (≈ 41.9 µM) | 8 (≈ 10.5 µM) | 32 (≈ 41.9 µM) | – | – | 4 (≈ 5.24 µM) | 1 (≈ 1.31 µM) | MIC ([6]; ATCC25238, Moraxella catarrhalis ATCC 25238, read-out: Antibacterial in vitro action (MIC, mg/l)): < 0.125 mg/L; MIC ([9]; ATCC7644, Listeria monocytogenes ATCC 7644, read-out: Antibacterial in vitro action (MIC, mg/l)): < 0.125 mg/L; MIC ([12]; ATCC19615, Streptococcus pyogenes ATCC 19615, read-out: Antibacterial in vitro action (MIC, mg/l)): < 0.125 mg/L; MIC ([14]; ATCC19438, Campylobacter fetus ATCC 19438, read-out: Antibacterial in vitro action (MIC, mg/l)): < 0.125 mg/L; MIC ([19]; ATCC33291, Campylobacter jejuni ATCC 33291, read-out: Antibacterial in vitro action (MIC, mg/l)): < 0.125 mg/L; MIC ([20]; ATCC6305, Streptococcus pneumoniae ATCC 6305, read-out: Antibacterial in vitro action (MIC, mg/l)): < 0.125 mg/L |
